Data set [1] can be described thus: In vitro stability test in human serum. The data set is classed as in vitro ADME. Conditions: 37° C., 0.1 mg/ml, mean n=3. Here is the method:
(§1) The stability of peptides is analysed in different plasma and serum types. The peptides are incubated at 37° C. in plasma and samples taken at approx. 9 regular intervals between t=0 and t=156 min are analysed by HPLC.
(§2) This is done by subsequent injections of the drug, plasma, and a co-injection with the drug and the plasma, followed by optimisation of the LC method parameters until a satisfactory separation is obtained. Three parallel experiments are performed for each plasma type:100 μl of peptide is mixed with 900 μl plasma at t=0 and incubated at 37° C. (drug-plasma mixture conc. 0.1 mg/ml). Samples of 100 μl of the drug-plasma mixture are removed at appropriate intervals and the degradation stopped by precipitation of the sample with 10 μl MeCN:TFA 50:50 v/v. A control plasma sample without the drug treated in the same manner is also taken. The plasma samples are centrifuged for 15 min. at 12,000 rpm (Eppendorf centrifuge) at ambient temperature. The resulting supernatant solution is transferred to 300 μl HP autosamler vials and analyzed by HPLC. […] Temp.: 40° C. • Solvent: MeCN/MQW/TFA (0.1%). Run time: 25 min. • Inj.vol.:15 μL. […]
(§3) The samples are analyzed in the following order: blank, the peptide at 0.1 mg/mL, the plasma without the peptide, the three parallel samples for t=0, the three parallel samples for t=5 min. the three parallel samples for t=10 min. etc. […]

Data set [2] can be described thus: In vitro stability test in rabbit plasma (heparin). The class given is in vitro ADME. The conditions noted are these: 37° C., 0.1 mg/ml, mean n=3. As for the experimental part:
as §1, §2, §3

Data set [3] relates to human osteoblastic cells. Description: Lucifer Yellow dye transfer in DDT-treated human osteoblast cells. The data set is classed as cell-based. Conditions: DDT 13 μM, 60 minutes; control 14.5 cells. Here is the method:
Human osteoblast cells: Cells were isolated from human bone marrow obtained by puncture of the posterior iliac spine of healthy volunteers (aged 20-36): 10-15 ml marrow material was collected in 15 ml PBS+Ca, Mg (Life Technologies, Cat.No. 14040) with 100 U/ml Heparin (Sigma, Cat.No. H-3149). The mononuclear fraction of the marrow was isolated on a Lymphoprep gradient (Nycomed Pharma, Cat.No. 1001967), by centrifugation at 2200 rpm for 30 min. After harvesting, the mononuclear fraction was washed once with culture medium and centrifuged at 1800 rpm for 10 min. Subsequently cells were counted and plated in culture medium at 8×10^6 cells/100 mm dish. hOB medium (all reagents obtained from Life Technologies): MEM w/o Phenol Red w/Glutamax (Cat.No. 041-93013) supplemented with 10% heat inactivated fetal calf serum (Cat.No. 10106) and 0.1% Penicillin/Streptomycin (Cat.No. 15140). Medium was changed the following day and the cells were cultured at 37° C. in 5%CO2 with medium change every 7 days. After 3-4 weeks of culture the cells had reached 70% confluence. The medium was then supplemented with 100 nM Dexamethasone (Sigma, Cat.No. D-4902) for 7 days. […]
The dye Lucifer Yellow (LY) was injected into one single human osteoblast in a monolayer. After 30 seconds, the number of cells containing dye was assessed. […]

[ ]: non-standard residue; d: D form. Hyp = O=C(O)[C@@H]1C[C@@H](O)CN1

Consider H-PYNGAG[Hyp]-NH2 [Compound 27], for which the T1/2 in data set [1] was determined as 3.1 h; in data set [2], 3.8 h.

As for `Clc1ccc(C(c2ccc(Cl)cc2)C(Cl)(Cl)Cl)cc1` [DDT, 1,1-bis(p-chlorophenyl)-2,2,2-trichlorethane], in data set [3], the “median number of cells containing dye” value was 7 cells.

(Values after patent US7250397B2, “Antiarrhythmic peptides” (Zealand Pharma A/S, priority 2000, dated 2007).)
